This passage reports growth results from ChEMBL document CHEMBL3994622, “Design and synthesis of new RAF kinase-inhibiting antiproliferative quinoline derivatives. Part 2: Diarylurea derivatives” (Eur J Med Chem, 2017).

What all share (format): functional
Test [1] has as its system CCRF-CEM. The experiment in a line: Growth inhibition of human CCRF-CEM cells assessed as cell growth at 100 uM incubated for 48 hrs by sulforhodamine B assay relative to control. Conditions: read-out: Activity. (The SRB assay estimates cell density from bound dye.)
Test [2] concerns HOP-92. The experiment in a line: Growth inhibition of human HOP92 cells assessed as cell growth at 10 uM incubated for 48 hrs by sulforhodamine B assay relative to control. Conditions: HOP-92, 48 h, read-out: Activity.
Test [3] relates to SK-MEL-28. The experiment in a line: Growth inhibition of human SK-MEL-28 cells assessed as cell growth at 10 uM incubated for 48 hrs by sulforhodamine B assay relative to control. Conditions: SK-MEL-28, 48 h, read-out: Activity.
Test [4] relates to LOX IMVI. The experiment in a line: Growth inhibition of human LOXIMVI cells assessed as cell growth at 10 uM incubated for 48 hrs by sulforhodamine B assay relative to control. Particulars: read-out: Activity.
Test [5] has as its system HOP-92. The test can be described thus: Growth inhibition of human HOP92 cells assessed as cell growth at 1 uM incubated for 48 hrs by sulforhodamine B assay relative to control. Particulars: HOP-92, 48 h, read-out: Activity.
Test [6] concerns SK-MEL-5. The test can be described thus: Growth inhibition of human SK-MEL-5 cells assessed as cell growth at 0.1 uM incubated for 48 hrs by sulforhodamine B assay relative to control. Conditions: SK-MEL-5, 48 h, read-out: Activity.
The test system of test [7] is NCI-H226. The experiment in a line: Growth inhibition of human NCI-H226 cells assessed as cell growth at 0.01 uM incubated for 48 hrs by sulforhodamine B assay relative to control. Particulars: NCI-H226, 48 h, read-out: Activity.
Test [8] deals with M14. The test can be described thus: Growth inhibition of human M14 cells assessed as cell growth at 1 uM incubated for 48 hrs by sulforhodamine B assay relative to control. Conditions: M14, 48 h, read-out: Activity.
Test [9] concerns T47D. The test can be described thus: Growth inhibition of human T47D cells assessed as cell growth at 0.01 uM incubated for 48 hrs by sulforhodamine B assay relative to control. Particulars: read-out: Activity.
Test [10] deals with UACC-62. The experiment in a line: Growth inhibition of human UACC62 cells assessed as cell growth at 0.1 uM incubated for 48 hrs by sulforhodamine B assay relative to control. Particulars: UACC-62, 48 h, read-out: Activity.
The test system of test [11] is SK-OV-3. The test can be described thus: Growth inhibition of human SKOV3 cells assessed as cell growth at 1 uM incubated for 48 hrs by sulforhodamine B assay relative to control. Particulars: SK-OV-3, 48 h, read-out: Activity.
The subject of test [12] is IGROV-1. The test can be described thus: Growth inhibition of human IGROV1 cells assessed as cell growth at 10 uM incubated for 48 hrs by sulforhodamine B assay relative to control. Conditions: IGROV-1, 48 h, read-out: Activity.
Test [13] relates to SNB-19. The test can be described thus: Growth inhibition of human SNB19 cells assessed as cell growth at 10 uM incubated for 48 hrs by sulforhodamine B assay relative to control. Particulars: SNB-19, 48 h, read-out: Activity.
The subject of test [14] is OVCAR-5. The test can be described thus: Growth inhibition of human OVCAR5 cells assessed as cell growth at 100 uM incubated for 48 hrs by sulforhodamine B assay relative to control. Particulars: OVCAR-5, 48 h, read-out: Activity.
Test [15] relates to M14. The experiment in a line: Growth inhibition of human M14 cells assessed as cell growth at 100 uM incubated for 48 hrs by sulforhodamine B assay relative to control. Conditions: M14, 48 h, read-out: Activity.
In test [16] the test system is UO-31. The test can be described thus: Growth inhibition of human UO31 cells assessed as cell growth at 100 uM incubated for 48 hrs by sulforhodamine B assay relative to control. Conditions: UO-31, 48 h, read-out: Activity.
In test [17] the test system is NCI/ADR-RES. The experiment in a line: Growth inhibition of human NCI/ADR-RES cells assessed as cell growth at 0.01 uM incubated for 48 hrs by sulforhodamine B assay relative to control. Particulars: read-out: Activity.
Test [18] concerns HOP-92. The test can be described thus: Growth inhibition of human HOP92 cells assessed as cell growth at 100 uM incubated for 48 hrs by sulforhodamine B assay relative to control. Particulars: HOP-92, 48 h, read-out: Activity.
Test [19] deals with OVCAR-3. The test can be described thus: Growth inhibition of human OVCAR3 cells assessed as cell growth at 30 uM incubated for 48 hrs by sulforhodamine B assay relative to control. Conditions: OVCAR-3, 48 h, read-out: Activity.
Test [20] concerns OVCAR-5. The experiment in a line: Growth inhibition of human OVCAR5 cells assessed as cell growth at 3 uM incubated for 48 hrs by sulforhodamine B assay relative to control. Conditions: OVCAR-5, 48 h, read-out: Activity.
Test [21] deals with MOLT-4. The test can be described thus: Growth inhibition of human MOLT4 cells assessed as cell growth at 30 uM incubated for 48 hrs by sulforhodamine B assay relative to control. Conditions: MOLT-4, 48 h, read-out: Activity.
In test [22] the test system is SNB-19. The experiment in a line: Growth inhibition of human SNB19 cells assessed as cell growth at 0.3 uM incubated for 48 hrs by sulforhodamine B assay relative to control. Particulars: SNB-19, 48 h, read-out: Activity.
Test [23] concerns ACHN. The test can be described thus: Growth inhibition of human ACHN cells assessed as cell growth at 0.003 uM incubated for 48 hrs by sulforhodamine B assay relative to control. Conditions: read-out: Activity.
Test [24] concerns SK-MEL-28. The experiment in a line: Growth inhibition of human SK-MEL-28 cells assessed as cell growth at 3 uM incubated for 48 hrs by sulforhodamine B assay relative to control. Particulars: SK-MEL-28, 48 h, read-out: Activity.
In test [25] the test system is CAKI-1. The test can be described thus: Growth inhibition of human Caki1 cells assessed as cell growth at 0.003 uM incubated for 48 hrs by sulforhodamine B assay relative to control. Conditions: CAKI-1, 48 h, read-out: Activity.
The subject of test [26] is OVCAR-3. The test can be described thus: Growth inhibition of human OVCAR3 cells assessed as cell growth at 0.3 uM incubated for 48 hrs by sulforhodamine B assay relative to control. Particulars: OVCAR-3, 48 h, read-out: Activity.
Test [27] deals with A549. The experiment in a line: Growth inhibition of human A549/ATCC cells assessed as cell growth at 0.03 uM incubated for 48 hrs by sulforhodamine B assay relative to control. Conditions: A549, 48 h, read-out: Activity.
Test [28] has as its system NCI-H23. The experiment in a line: Growth inhibition of human NCI-H23 cells assessed as cell growth at 0.003 uM incubated for 48 hrs by sulforhodamine B assay relative to control. Particulars: NCI-H23, 48 h, read-out: Activity.
Test [29] relates to BT-549. The test can be described thus: Growth inhibition of human BT549 cells assessed as cell growth at 0.003 uM incubated for 48 hrs by sulforhodamine B assay relative to control. Particulars: BT-549, 48 h, read-out: Activity.
The test system of test [30] is TK-10. The test can be described thus: Growth inhibition of human TK10 cells assessed as cell growth at 0.003 uM incubated for 48 hrs by sulforhodamine B assay relative to control. Particulars: TK-10, 48 h, read-out: Activity.
In test [31] the test system is OVCAR-8. The test can be described thus: Growth inhibition of human OVCAR8 cells assessed as cell growth at 0.003 uM incubated for 48 hrs by sulforhodamine B assay relative to control. Particulars: OVCAR-8, 48 h, read-out: Activity.
Test [32] deals with K562. The experiment in a line: Growth inhibition of human K562 cells assessed as cell growth at 3 uM incubated for 48 hrs by sulforhodamine B assay relative to control. Particulars: K562, 48 h, read-out: Activity.
For test [33], the system named is HT-29. The test can be described thus: Growth inhibition of human HT-29 cells assessed as cell growth at 3 uM incubated for 48 hrs by sulforhodamine B assay relative to control. Conditions: HT-29, 48 h, read-out: Activity.
The test system of test [34] is HOP-92. The experiment in a line: Growth inhibition of human HOP92 cells assessed as cell growth at 0.003 uM incubated for 48 hrs by sulforhodamine B assay relative to control. Particulars: HOP-92, 48 h, read-out: Activity.
Test [35] has as its system OVCAR-5. The experiment in a line: Growth inhibition of human OVCAR5 cells assessed as cell growth at 0.003 uM incubated for 48 hrs by sulforhodamine B assay relative to control. Particulars: OVCAR-5, 48 h, read-out: Activity.

Regarding `COc1cc2cc(Oc3ccc(NC(=O)Nc4ccc(Cl)c(Cl)c4)cc3)c(C)nc2cc1OC`, the growth at 100 µM is -26% in test [1]; -44% in test [14]; -94% in test [15]; -57% in test [16]; -100% in test [18]. The growth at 10 µM in test [2] is -41%; in test [3] it was 16%; in test [4] it was 20%; in test [12], 30%; in test [13], 25%. For the same compound, the figures for the growth at 1 µM in test [5], in test [8] and in [11] were 91%, 83% and 112%, respectively. Further, the growth at 0.1 µM is 100% in test [6] and 89% in test [10]. The values for the growth at 0.01 µM in test [7], in [9] and in [17] were 104%, 100% and 101%, respectively.
As to `COc1cc2cc(Oc3ccc(NC(=O)Nc4ccc(Cl)c(C(F)(F)F)c4)cc3)c(C)nc2cc1OC`, the results for the growth at 30 µM in [19] and in test [21] were -87% and -36%, respectively. For the same compound, the growth at 3 µM in [20] was 32%; in [24], 27%; in [32] it was 12%; in test [33], 8%. The growth at 0.3 µM in [22] stood at 96%; in test [26], 95%. In addition, the growth at 0.003 µM amounted to 95% in test [23]; 93% in test [25]; 97% in test [28]; 98% in test [29]; 94% in [30]; 94% in test [31]. For the same compound, the figures for the growth at 0.003 µM in [34] and in [35] were 92% and 96%, respectively. For the same compound, the growth at 0.03 µM in test [27] came out at 100%.
As for `COc1cc2cc(Oc3ccc(NC(=O)Nc4cc(C(F)(F)F)cc(C(F)(F)F)c4)cc3)c(C)nc2cc1OC`, the growth at 100 µM in [1] is -40%; in [14], -78%; in test [15], -66%; in [16], -89%; in test [18], -58%. In addition, the growth at 10 µM in [2] was -38%; in test [3], -61%; in test [4] it was -84%; in [12], -55%; in test [13], -79%. For the same compound, the growth at 1 µM is 54% in test [5], 50% in test [8] and 88% in test [11]. Also, the growth at 0.1 µM in test [6] stood at 101%; in [10], 96%. Besides, the growth at 0.01 µM in test [7] turned out to be 103%; in test [9] it was 86%; in test [17], 101%.
Regarding `Cc1nc2cc(O)c(O)cc2cc1Oc1ccc(NC(=O)Nc2ccc(Cl)c(Cl)c2)cc1`, the growth at 30 µM was -29% in [19] and 2% in test [21]. Moreover, the growth at 3 µM is 119% in test [20], 92% in [24], 76% in [32] and 98% in test [33]. Besides, the growth at 0.3 µM in test [22] came to 117%; in test [26], 109%. Further, the growth at 0.003 µM in test [23] is 103%; in test [25], 97%; in test [28], 96%; in test [29], 91%; in test [30] it was 98%; in test [31], 98%. The values for the growth at 0.003 µM in test [34] and in [35] were 84% and 102%, respectively. Moreover, the growth at 0.03 µM in test [27] came out at 98%.
